Series [1] has as its system Liver and Kidney Functions. As to the kind of experiment: Effect on liver and kidney functions in rats after 15 days oral dosing. It counts as in vivo, male Wistar rats. Set-up: ALT / AST: dose or concentration left out as unconfirmed. The following applies: oral 15 days; for Blood Urea / ALT / AST / Creatinine: mean ± SD, n = 10; for hepatotoxic manifestation / nephrotoxic manifestations: no significant difference to control at 0.05 level; for ALT / AST / Creatinine: serum. The procedure: (§1) The anti-ulcerative colitis compounds were tested on Swiss albino mice of both genders (26-30 g), as well as male Wistar rats (180-200 g). The animals were housed in standard polypropylene cages with wire mesh tops and maintained under standard conditions (temperature of 23±1.0° C., humidity of 55±10%, 12 h light/12 h dark cycle). They were fed with a standard pellet diet with water ad libitum and were allowed to adapt to the laboratory environment for one week before experimentation.
The male Wister rats were divided into two equal groups each having ten rats. […] After the examination period, 6 hours after the last dose blood samples were collected from the orbital plexus of rats, samples were left to clot at room temperature for 30 minutes and then centrifuged at 1000 rpm for 20 minutes. The collected sera were used for determination of the activity of both […] (AST) and alanine aminotransferase (ALT) as liver markers. Additionally, levels of blood urea and serum creatinine were also estimated as kidney markers.

Series [2] concerns Acetic Acid-induced Colitis. Kind of series: Acetic acid-induced colitis in rats (prophylactic effect, macroscopic scoring). In kind it is in vivo, male Wistar rats. The following applies: for percent protection of control colitis: 50 mg/kg orally; for anti-ulcerative colitis activity (in words): administrated orally to rats, 50 mg/kg. The procedure: as §1
In order to examine the effect of the treatment compounds on ulcerative colitis, five groups of six rats were used. Two groups received compounds 5 and 6 at a dose of 50 mg/kg of body weight. Three other groups of animals were used, with two receiving water orally and the third receiving dexamesathone at a dose of 0.1 mg/kg orally, serving as control, control colitis and standard groups, respectively. All medications were administrated for five successive days. Two hour after the last dose, ulcerative colitis was induced by slowly infusion of 2 mL (4%, v/v) of acetic acid in saline into the colon through a catheter. Two days after the induction of colitis, the animals were sacrificed and colonic segments (8 cm in length and 3 cm proximal to the anus) were excised, opened and were used for macroscopic scoring.
To assess colonic lesions, the colon specimens were weighted and the wet weight/length ratio was calculated for all of the animals. The specimens were examined under a dissecting microscope and mucosal lesions were quantified by the scoring system (0-5): 0=no damage, 1=local edema and inflammation without ulcers; 2=one ulcer without inflammation; 3=one to two ulcers with inflammation and lesion diameter <1 cm; 4=more than two ulcers with lesion diameter 1-2 cm; 5=severe ulceration with lesion diameter >2 cm.
Ulcer area was measured using a plane glass square. Each cell on the glass square was 1 mm^2 in area and the number of cells were counted and the ulcer area was determined for each colon. Ulcer index was measured by summing the lesion score and the ulcer area for each colon specimen. All values were expressed as mean±S.D. Statistical analysis was performed using SPSS 10. Statistical significance of differences between two means was assessed by unpaired student's T-test. Differences at p<0.05, 0.01, and 0.001 were considered statistically significant.

Another series concerns Swiss albino mice. As to conditions: mouse, in vivo. The procedure:
as §1
In order to determine the oral median lethal dose (LD50) of the anti-ulcerative colitis compound, the Swiss albino mice (in groups of six), received one of 50, 100, 500, or 1000 mg/kg doses of the target compound. Control animals received the pharmaceutical vehicle only and were kept under the same conditions. Signs of acute toxicity and the number of deaths per dose within 24 hours were recorded.

In the case of `COc1cc(/C=N/n2c(-c3ccc(C)cc3)nc3ccccc3c2=O)ccc1O` [Compound 5, 3-[(4-hydroxy-3-methoxy-benzylidene)-amino]-2-p-tolyl-3H-quinazolin-4-one], in series [1], the “Blood Urea” value is 65.50 ± 1.9 mg/dL, the hepatotoxic manifestation result was “do not result in hepatotoxic manifestation”, the nephrotoxic manifestations result is “no apparent nephrotoxic manifestations” and the ALT worked out at 38.67 ± 0.22 U/l. In series [1], this compound displayed an AST of 63.23 ± 0.39 U/l and a Creatinine of 0.85 ± 0.02 mg/dL. Further, in series [2], the “percent protection of control colitis” value came to 51.2% and the “anti-ulcerative colitis activity (in words)” value was “potent anti-ulcerative colitis activity”. The “behavioral changes and/or mortality in mice” value in the series on Swiss albino mice is listed as “did not produce any behavioral changes and/or mortality”.

On to `COc1cc(/C=N/n2c(-c3ccc(C)cc3)nc3ccccc3c2=O)cc(OC)c1OC` [Compound 6, 2-p-tolyl-3-[3,4,5-trimethoxy-benzylidene-amino]-3H-quinazolin-4-one], for which, in series [1], the “Blood Urea” value stood at 65.50 ± 1.9 mg/dL, the hepatotoxic manifestation entry was “do not result in hepatotoxic manifestation”, the nephrotoxic manifestations result is “no apparent nephrotoxic manifestations” and the ALT is given as 38.67 ± 0.22 U/l. Also, in series [1], the AST is 63.23 ± 0.39 U/l and the Creatinine stood at 0.85 ± 0.02 mg/dL. For the same compound, in series [2], the “percent protection of control colitis” value amounted to 61.8% and the “anti-ulcerative colitis activity (in words)” value is “potent anti-ulcerative colitis activity”. Also, the “behavioral changes and/or mortality in mice” value in the series on Swiss albino mice is “did not produce any behavioral changes and/or mortality”.

`C[C@@H]1C[C@H]2[C@@H]3CCC4=CC(=O)C=C[C@]4(C)[C@@]3(F)[C@@H](O)C[C@]2(C)[C@@]1(O)C(=O)CO` [Dexamethasone, reference compound]: the percent protection in series [2] (0.1 mg/kg orally) is 72.2%.

For the origin of these results see patent US10016425B2, “Anti-ulcerative colitis compound” (KING SAUD UNIVERSITY, priority 2016, dated 2018).
